Where a name gives a salt, the structure may show the parent alone.
What was measured:
Format in all cases: cell-based, human
[1] = tested on: HepG2 (hepatocellular carcinoma) cell line; experiment: CellTiter-Glo luminescent cell viability assay, HepG2; conditions: Homo sapiens; for EC50: HepG2 cell line, 72 h incubation, CellTiter-Glo, read-out: EC50, growth inhibition of HepG2; for viability at 4 µM / viability at 10 µM: HepG2, HepG, 72 h; for viability at 4 µM: compound at 4 μM; for viability at 10 µM: compound at 10 μM
Procedure, shortened: (§1)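 Adherent lines plated overnight, MOLM-14 (suspension) 1 h before dosing, in medium with 10% FBS at 37 °C, 5% CO2. Compounds added at varying concentrations for 72 h; CellTiter-Glo luminescence read, EC50 as dose reducing signal to 50% of diluent-treated cells, at least duplicate points.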

[2] = tested on: HCT-116 (colorectal carcinoma) cell line; experiment: CellTiter-Glo luminescent cell viability assay, HCT-116; conditions: Homo sapiens; for EC50: HCT-116 cell line, 72 h incubation, CellTiter-Glo, read-out: EC50, growth inhibition of HCT-116; for viability at 4 µM: HCT-116, compound at 4 μM; for viability at 4 µM / viability at 10 µM: 72 h; for viability at 10 µM: HCT-116, compound at 10 μM
Procedure, shortened: (§2)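 72 h compound exposure, 37 °C, 5% CO2, 10% FBS medium; ATP luminescence read after 30 min RT equilibration. Viability as % of H2O/DMSO diluent control; EC50 = dose giving 50% of control signal. Duplicate points minimum.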

[3] = tested on: A375 (malignant melanoma) cell line; experiment: CellTiter-Glo luminescent cell viability assay, A375; conditions: Homo sapiens, A-375; for EC50: A375 cell line, 72 h incubation, CellTiter-Glo, read-out: EC50, growth inhibition of A375; for viability at 4 µM: A375, compound at 4 μM; for viability at 4 µM / viability at 10 µM: 72 h; for viability at 10 µM: A375, compound at 10 μM
Procedure, shortened: as §2

[4] = tested on: MOLM-14 (acute myeloid leukemia) cell line; experiment: CellTiter-Glo luminescent cell viability assay, MOLM-14; conditions: Homo sapiens; for EC50: MOLM-14 cell line, 72 h incubation, CellTiter-Glo, read-out: EC50, growth inhibition of MOLM-14; for viability at 4 µM: MOLM-14, compound at 4 μM; for viability at 4 µM / viability at 10 µM: 72 h; for viability at 10 µM: MOLM-14, compound at 10 μM
Procedure, shortened: as §1

[5] = tested on: 786-O (renal adenocarcinoma) cell line; experiment: CellTiter-Glo luminescent cell viability assay, 786-O; conditions: Homo sapiens, 786-0; for EC50: 786-O cell line, 72 h incubation, CellTiter-Glo, read-out: EC50, growth inhibition of 786-O; for viability at 4 µM / viability at 10 µM: 786-O, 72 h; for viability at 4 µM: compound at 4 μM; for viability at 10 µM: compound at 10 μM
Procedure, shortened: as §2

[6] = tested on: Huh7 (hepatocellular carcinoma) cell line; experiment: CellTiter-Glo luminescent cell viability assay, Huh7; conditions: Homo sapiens, Huh-7; for EC50: Huh7 cell line, 72 h incubation, CellTiter-Glo, read-out: EC50, growth inhibition of Huh7; for viability at 4 µM: Huh7, compound at 4 μM; for viability at 4 µM / viability at 10 µM: 72 h; for viability at 10 µM: Huh7, compound at 10 μM
Procedure, shortened: as §1

| Compound | EC50 [1] | EC50 [2] | EC50 [3] | EC50 [4] | EC50 [5] | EC50 [6] | viability at 4 µM [1] | viability at 10 µM [1] | viability at 4 µM [2] | viability at 10 µM [2] | viability at 4 µM [3] | viability at 10 µM [3] | viability at 4 µM [4] | viability at 10 µM [4] | viability at 4 µM [5] | viability at 10 µM [5] | viability at 4 µM [6] | viability at 10 µM [6] |
| --- | --- | --- | --- | --- | --- | --- | --- | --- | --- | --- | --- | --- | --- | --- | --- | --- | --- | --- |
| Clc1ccc(CNc2cc(N3CC[C@@H](Oc4ccccc4)C3)c3ccccc3n2)cc1 [Compound 3012, (3R) 2-(4-chlorobenzylamino)-4-[3-(phenoxy)pyrrolidin-1-yl]quinoline hydrochloride] | 0.5 to 5 µM | 0.5 to 5 µM | 0.5 to 5 µM | 0.5 to 5 µM | 0.5 to 5 µM | 0.5 to 5 µM |  |  |  |  |  |  |  |  |  |  |  |  |
| N#Cc1c(NCc2ccc(Cl)cc2)nc2ccccc2c1N1CCCC(Oc2ccccc2)C1 (stereo not drawn) [Compound 3206CN, 2-(4-chlorobenzylamino)-3-cyano-4-(3-phenoxypiperidin-1-yl)quinoline] |  |  |  |  |  |  | 72.4% | 65% | 97.9% | 91.2% | 111% | 104% | 96% | 107% | 79.9% | 75.1% | 107% | 95.1% |
| Clc1ccc(CNc2cc(N3CC[C@H](Oc4ccccn4)C3)c3ccccc3n2)cc1 [Compound 3098, (3S) 2-(4-chlorobenzylamino)-4-[3-(pyridin-2-yloxy)pyrrolidin-1-yl]quinoline hydrochloride] | 0.5 to 5 µM | 0.5 to 5 µM | 0.5 to 5 µM | 0.5 to 5 µM | 0.5 to 5 µM | 0.5 to 5 µM |  |  |  |  |  |  |  |  |  |  |  |  |
| CC(C)N(Cc1ccc(Cl)cc1)c1cc(N2CCC(NC(C)(C)C)CC2)c2ccccc2n1 [Compound 216, 2-(N-4-chlorobenzyl-N-isopropylamino)-4-[4-(tert-butylamino)-piperidin-1-yl]-quinoline hydrochloride] |  |  |  |  |  |  | 30.4% | 0.4% | 15.5% | 0.3% | 78.1% | 0.4% | 86.7% | 0.5% | 78.4% | 0.5% | 74.1% | 0.5% |
| O[C@H]1CCN(c2cc(NCc3ccc(Cl)cc3)nc3ccccc23)C1 [Compound 3060, (3S) 2-(4-chlorobenzylamino)-4-(3-hydroxypyrrolidin-1-yl)-quinoline hydrochloride] | 0.5 to 5 µM | 0.5 to 5 µM | 0.5 to 5 µM | 0.5 to 5 µM | 5 to 10 µM | 0.5 to 5 µM |  |  |  |  |  |  |  |  |  |  |  |  |
| N#Cc1c(NCc2ccc(Cl)cc2)nc2ccccc2c1N1CCC(Oc2ccc(F)cc2)CC1 [Compound 2942CN, 2-(4-chlorobenzylamino)-3-cyano-4-[4-(4-fluorophenoxy)piperidin-1-yl]quinoline] |  |  |  |  |  |  | 99.1% | 75.3% | 91% | 75.1% | 101% | 94.9% | 98.2% | 88.1% | 87.7% | 81.3% | 94.3% | 87.9% |
| N#Cc1c(NCc2ccc(Cl)cc2)nc2ccccc2c1N1CCCC(Oc2ccc(F)cc2)C1 (stereo not drawn) [Compound 3238CN, 2-(4-chlorobenzylamino)-3-cyano-4-[3-(4-fluorophenoxy)piperidin-1-yl]quinoline] |  |  |  |  |  |  | 95.9% | 90.8% | 97.8% | 85.1% | 106% | 102% | 101% | 91.6% | 90.7% | 86.1% | 97.7% | 93.7% |
| Cc1ccnc(Nc2ccc(Nc3nc4ccccc4c(N4CCC(NC(C)(C)C)CC4)c3C)cc2)n1 [Compound 532Me, 2-[4-(4-methylpyrimidin-2-ylamino)phenylamino]-3-methyl-4-(4-tert-butylaminopiperidin-1-yl)quinoline] |  |  |  |  |  |  | 12.3% | 0.3% | 16% | 0.3% | 23.3% | 0.3% | 65.5% | 0.4% | 0.3% | 0.3% | 55.9% | 0.5% |
| CC(C)(C)NC1CCN(c2c(C#N)c(Nc3ccc(OC(F)(F)F)cc3)nc3ccccc23)CC1 [Compound 3266CN, 2-[4-(trifluoromethyloxy)phenylamino]-3-cyano-4-[4-(tert-butylamino)piperidin-1-yl]quinoline] |  |  |  |  |  |  | 60.6% | 24.9% | 17.7% | 4.7% | 48.1% | 21.1% | 91.4% | 50.3% | 28.1% | 3.8% | 78% | 49.1% |
| Clc1ccc(CNc2cc(N3CC(N4CCOCC4)C3)c3ccccc3n2)cc1 [Compound 118, 2-(4-chlorobenzylamino)-4-[3-(morpholin-4-yl)azetidin-1-yl]quinoline hydrochloride] | 5 to 10 µM | 5 to 10 µM | 5 to 10 µM | 5 to 10 µM | 0.5 to 5 µM | 5 to 10 µM |  |  |  |  |  |  |  |  |  |  |  |  |

Continued, in another order:

| EC50 [1] | EC50 [2] | EC50 [3] | EC50 [4] | EC50 [5] | EC50 [6] | Compound | viability at 4 µM [1] | viability at 10 µM [1] | viability at 4 µM [2] | viability at 10 µM [2] | viability at 4 µM [3] | viability at 10 µM [3] | viability at 4 µM [4] | viability at 10 µM [4] | viability at 4 µM [5] | viability at 10 µM [5] | viability at 4 µM [6] | viability at 10 µM [6] |
| --- | --- | --- | --- | --- | --- | --- | --- | --- | --- | --- | --- | --- | --- | --- | --- | --- | --- | --- |
| 5 to 10 µM | 0.5 to 5 µM | 0.5 to 5 µM | 5 to 10 µM | 0.5 to 5 µM | 5 to 10 µM | Cc1ccnc(Nc2ccc(Nc3nc4ccccc4c(N4CCC(NC(C)(C)C)CC4)c3C#N)cc2)n1 [Compound 532CN, 2-[4-(4-methylpyrimidin-2-ylamino)phenylamino]-3-cyano-4-(4-tert-butylaminopiperidin-1-yl)quinoline] |  |  |  |  |  |  |  |  |  |  |  |  |
| 0.5 to 5 µM | 0.5 to 5 µM | 0.5 to 5 µM | 0.5 to 5 µM | 0.5 to 5 µM | 0.5 to 5 µM | CC(C)(C)NC1CCN(c2c(C#N)c(Nc3ccc(Cl)cc3)nc3ccccc23)CC1 [Compound 3258CN, 2-(4-chlorophenylamino)-3-cyano-4-[4-(tert-butylamino)piperidin-1-yl]quinoline] | 44.3% | 0.8% | 0.7% | 0.6% | 9.7% | 0.8% | 79.8% | 1% | 4.4% | 0.7% | 73.8% | 1.8% |
| 5 to 10 µM | 0.5 to 5 µM | 5 to 10 µM | 5 to 10 µM | 5 to 10 µM | 5 to 10 µM | Cc1ccnc(Nc2ccc(Nc3nc4ccccc4c(N4CCC(NC(C)(C)C)CC4)c3C#N)cc2C)n1 [Compound 500CN, 2-[4-(4-methyl-2-pyrimidinamino)-3-methyl-phenylamino]-3-cyano-4-(4-tert-butylaminopiperidin-1-yl)-quinoline] |  |  |  |  |  |  |  |  |  |  |  |  |
| 5 to 10 µM | 5 to 10 µM | 0.5 to 5 µM | 5 to 10 µM | 5 to 10 µM | 5 to 10 µM | Cc1cccc(OC2CCN(c3cc(NCc4ccc(Cl)cc4)nc4ccccc34)CC2)c1 [Compound 2946, 2-(4-chlorobenzylamino)-4-[4-(m-tolyloxy)piperidin-1-yl]quinoline hydrochloride] |  |  |  |  |  |  |  |  |  |  |  |  |
| 0.5 to 5 µM | 5 to 10 µM | 5 to 10 µM | 0.5 to 5 µM | 5 to 10 µM | 0.5 to 5 µM | Clc1ccc(CNc2cc(N3CCC(Oc4cnccn4)CC3)c3ccccc3n2)cc1 [Compound 2958, 2-(4-chlorobenzylamino)-4-[4-(pyrazin-2-yloxy)piperidin-1-yl]quinoline hydrochloride] |  |  |  |  |  |  |  |  |  |  |  |  |
| 0.5 to 5 µM | 0.5 to 5 µM | 5 to 10 µM | 5 to 10 µM | 5 to 10 µM | 0.5 to 5 µM | CNC(=O)C1CCN(c2cc(NCc3ccc(Cl)cc3)nc3ccccc23)CC1 [Compound 1598, 2-(4-chlorobenzylamino)-4-[4-(methylcarbamoyl)piperidin-1-yl]quinoline hydrochloride] |  |  |  |  |  |  |  |  |  |  |  |  |
| 5 to 10 µM | 0.5 to 5 µM | 0.5 to 5 µM | 0.5 to 5 µM | 0.5 to 5 µM | 0.5 to 5 µM | COC(=O)c1c(NCc2ccc(Cl)cc2)nc2ccccc2c1N1CCC(NC(C)(C)C)CC1 [Compound 354, methyl 4-(4-(tert-butylamino)piperidin-1-yl)-2-(4-chlorobenzylamino) quinoline-3-carboxylate] |  |  |  |  |  |  |  |  |  |  |  |  |

Reference: patent US10577362B2, “Substituted 2, 4-diamino-quinoline derivatives for use in the treatment of proliferative diseases” (GENOSCIENCE PHARMA, priority 2016, dated 2020)
